Legend:
[1] = 14-day pre-toxicology tolerance test on rat; type: in vivo; settings: once a day for 14 days, male rats
Method: [table] A total of 21 animals in this experiment were randomly divided into 7 groups. The animals were orally administered with the test compounds once a day for 14 consecutive days, and the toxicity was evaluated. Animal necropsy and tissue would be taken from the fixative, repaired, dehydrated, embedded, sectioned, stained and microscopically examined. These tissues included the liver, heart and lung of all animals, and spleen, stomach, duodenum, jejunum, ileum, and kidney of partial animals.

HBV [2] = test: Anti-HBV activity on the hepatitis B virus mouse model (AAV-HBV); type: in vivo, C57BL/6 mice; settings: 10 mg/kg, PO
Method: The AAV vector-mediated HBV infected mouse model is a fast and efficient HBV model. Using the high hepatotropism of the AAV vector, the recombinant adeno-associated type 8 virus carrying 1.3 copies of the HBV genome (rAAV8-1.3HBV) is injected into the tail vein of mice, which can efficiently introduce the carried 1.3 copy HBV genome into hepatocytes. Due to the characteristics of the AAV viral vector, the vector mediated by it can express for a long time. The AAV/HBV model can continuously replicate HBV DNA and express HBsAg and HBeAg in the liver of the mice.
The anti-HBV efficacy of the test compound in vivo was evaluated by determining the content of HBsAg in the serum of the mice after treatment with the test compound on AAV/HBV mouse mode.
C57BL/6 mice, 10% HP-f-CD as vehicle, reference compound TDF (Tenofovir), test compound, recombinant virus rAAVS-1.3HBV, main reagents of the experiment including QIAamp96 DNA kit and TaqMan® Universal PCR Master Mix, Hepatitis B Virus Surface Antigen Detection Kit, instruments including: centrifuge (Beckman Allegra X-15R), tissue grinder (QIAGEN-Tissue lyser II) and spectrophotometer (Thermo-NANODROP 1000).
a) All mice were orally administered on the 28th day after the virus injection, and the day was set as day 0. Submaxillary blood of all mice was collected for serum collection before administration. The mice were administered once a day for four weeks.
b) Submaxillary blood of all mice was collected for serum collection twice a week, the volume of the blood collected each time was approximately 100 μL.
c) On the 28th day, all mice were euthanized and the blood was collected from the heart for serum collection.
The content of HBsAg in the serum of the mice was determined by ELISA. The experimental procedure refers to the specification of HBsAg ELISA kit.
a) The anti-HBV activity of the test compound on AAV/HBV mice model was evaluated by determining the content of HBsAg in the plasma of the mice.

HBV [3] = test: In vivo pharmacodynamic study of hydrodynamic injection mouse HBV model (HDI-HBV) via tail vein; design: species or system Balb/c mice; settings: mouse plasma
Method: Anti-hepatitis B virus activity of the compound of the embodiment in vivo was evaluated by HDI mice model.
Balb/c mice, 10% HP—F-CD as vehicle, test compound, RG7834, ETV (Entecavir), pAAV2-HBV 1.3mer plasmid (extracted with Qiagen EndoFree Plasmid Giga kit), main reagents including QIAamp96 DNA kit and FasStart Universal Probe Mast (ROX). The main instruments used in this experiment included centrifuge (Beckman Allegra X-15R), tissue grinder (QIAGEN-Tissue lyser II) and spectrophotometer (Thermo-NANODROP 1000).
b) On day 0, all mice were subjected to hydrodynamic injection with HBV plasmid DNA solution via tail vein. The plasmid DNA was pre-treated with sterile physiological saline before injection and stored at 4° C. until use. Plasmid DNA solution was injected via the tail vein at a dose of 8% of the body weight of the mouse within 5 seconds.
c) On the 1st day to the 7th day, the mice were administered with the compound or solvent by oral gavage for 7 days.
d) On the 1st day, 3rd day and 5th day, the blood was collected from the submandibular vein of the mice, and heparin sodium was used as an anticoagulant. The blood sample was centrifuged at 7,000×g, 4° C. to prepare the plasma for the determination of HBV DNA.
e) On the 7^h day, all mice were euthanized by CO2. The blood was collected from the heart to prepare plasma, and the liver tissue was collected. Two left hepatic lobe were isolated, the size of which was 70-100 mg, and were frozen by liquid nitrogen immediately after collection. One of the hepatic lobe was used for HBV DNA detection, and the other was used for backup.
The content of HBsAg in the serum of the mice was determined by ELISA (enzyme linked immunosorbent assay). The experimental procedure refers to the specification of HBsAg ELISA kit.
The inhibitory activity of the test compound on HBV replication on the mouse HDI model was determined by measuring the content of HBsAg in the plasma of the mice.

hepatitis B = settings: woodchuck model, RG7834 as a single drug; cited from earlier work

SMILES: COCCCOc1cc2c(cc1OC)-c1cc(=O)c(C(=O)O)cn1[C@H](C(C)C)C2 [RG7834, reference compound]
- histopathological changes associated with the test compound ([1]; high dose group (1000 mg/kg)): mild myocardial degeneration in the heart, mild degeneration of central hepatic cells in the small lobules of the liver, mild decrease of white pulp lymphocytes in the spleen, and moderate acute inflammation of the duodenal mucosa
- histopathological changes associated with the test compound ([1]; medium and low dose groups (300 and 100 mg/kg), heart, liver and lung examined): no histopathological changes associated with the test compound were observed
- HBsAg content in the plasma of the mice (HBV [2]; day 4): 3.54 IU/mL
- HBsAg content in the plasma of the mice (HBV [2]; day 7): 3.58 IU/mL
- HBsAg content in the plasma of the mice (HBV [2]; day 11): 3.70 IU/mL
- HBsAg content in the plasma of the mice (HBV [2]; day 14): 3.49 IU/mL
- HBsAg content in the plasma of the mice (HBV [2]; day 18): 3.70 IU/mL
- HBsAg content in the plasma of the mice (HBV [2]; day 21): 3.52 IU/mL
- HBsAg content in the plasma of the mice (HBV [2]; day 25): 3.50 IU/mL
- HBsAg content in the plasma of the mice (HBV [2]; day 28): 3.66 IU/mL
- HBsAg content in the plasma of the mice (HBV [2]; day −1): 4.56 IU/mL
- Log HBsAg (IU/mL) (Ave. value) (HBV [3]; dosing time day 1, 30 mg/kg QD gavage): 3.75 IU/mL
- Log HBsAg (IU/mL) (Ave. value) (HBV [3]; dosing time day 3, 30 mg/kg QD gavage): 4.08 IU/mL
- Log HBsAg (IU/mL) (Ave. value) (HBV [3]; dosing time day 5, 30 mg/kg QD gavage): 3.59 IU/mL
- Log HBsAg (IU/mL) (Ave. value) (HBV [3]; dosing time day 7, 30 mg/kg QD gavage): 1.10 IU/mL
- reduction of HBV-DNA (hepatitis B): 1.7 Log
- reduction of surface antigens (hepatitis B): 2.57 Log

Source: patent US20200197409A1, “HEPATITIS B VIRUS SURFACE ANTIGEN INHIBITOR” (FUJIAN COSUNTER PHARMACEUTICAL CO., LTD., priority 2017, published 2020)
